Measurements reported in paper PMC10730845, “Endoxifen downregulates AKT phosphorylation through protein kinase C beta 1 inhibition in ERα+ breast cancer” (NPJ Breast Cancer, 2023).

Key:
MCF7AC1 cells [1] = experiment: Crystal violet cell viability / proliferation assay, MCF7AC1; assay type: cell-based, human; conditions: estrogen deprived (CSS), six days
Experimental: Fig. 1 Z-endoxifen (ENDX) effects on cell viability and apoptosis in estrogen deprived ERα+ /HER2- MCF7AC1 cells. a Cells grown in CSS medium were treated with vehicle control or the indicated ENDX concentrations for […]. Cell viability was assessed by the crystal violet assay. b Cells were co-treated with vehicle control or the indicated ENDX concentrations, IncuCyte Annexin V green and NucLight red reagents in CSS medium for 48 h. […] Data represents the mean of six wells per treatment performed as biological duplicates ± s.d. **p ≤ 0.01; ***p ≤ 0.001; ****p ≤ 0.0001 by one-way ANOVA.
(§1) Cells were plated at a density of 2000 cells per well. Cell viability of (i) vehicle or drug treated MCF7AC1 and T47D-LTED cells in CSS medium, (ii) siNT or siPKCβ-transfected MCF7AC1 cells in CSS medium and (iii) T47D cells in FBS versus CSS medium were analyzed by crystal violet staining assay after 6 days of treatment or siRNA transfection as previously described. Cell viability was calculated as the average absorbance of the drug treated cells divided by the average absorbance of the vehicle treated cells × 100.

MCF7AC1 cells [2] = experiment: IncuCyte Annexin V apoptosis assay, MCF7AC1; assay type: cell-based, human; conditions: for Effect on apoptosis: CSS medium, 48 h, ENDX 5 µM, TAM 0.1 µM, ICI 0.1 µM
Experimental: (§2) MCF7AC1 and T47D-LTED cells were plated at a density of 2000 cells per well in CSS medium for 24 h. Cells were then co-treated for 48 h with vehicle or drug, IncuCyte Annexin V green reagent (#4642, 1:300), an early-stage apoptosis marker, and IncuCyte NucLight rapid red reagent (#4717, 1:500), a dye that stains all cell nuclei red, in CSS medium. MCF7AC1^caAKT cells were plated at a cell density of 2000 cells per well in CSS medium in the absence or presence of cumate for 48 h and then co-treated with vehicle or drug, Annexin V green and NucLight rapid red reagents in the absence or presence of cumate for an additional 48 h in CSS medium.

[3] = tested on: AKT^Ser473 phosphorylation in T47D-LTED cells; experiment: Immunoblot of pAKT^Ser473, T47D-LTED; assay type: cell-based, human; conditions: CSS medium, 24 h; 1 and 5 µM, but not 0.1 µM
Experimental: (§3) Protein lysates were prepared using the RIPA lysis buffer system (ChemCruz #sc-24948) and quantified using the DC^TM Protein Assay reagents (Bio-Rad #5000112). Equal amounts of protein lysates were separated on 10% Criterion gels (Bio-Rad #3450112), transferred to PVDF membranes (Bio-Rad #1620177), blocked in TBST-5% milk and probed with primary antibodies listed in Supplementary Table 5, at the indicated dilutions. Membranes were incubated with HRP-conjugated anti-rabbit (CST #7074) or anti-mouse (CST #7076) secondary antibodies and visualized using chemiluminescent West Pico (Thermo Scientific #34580) or West Femto (Thermo Scientific #34096) reagents and a Li-Cor Odyssey® XF imager. Protein lysates from the MCF7AC1 xenograft model were obtained from a previous study. Quantitation of the protein bands signal intensity was performed using the NIH ImageJ image analysis software (https://imagej.nih.gov/ij///index.html). For the quantitation of the phospho protein levels, we first normalized total protein levels to β-actin loading control and used these values to normalize the phospho protein levels and compared change in protein expression levels relative to vehicle control normalized to 1.0. For the quantitation of total protein levels, we normalized the total protein levels to β-actin and compared change in expression levels relative to vehicle control normalized to 1.0. […]

[4] = tested on: AKT phosphorylation (pAKT^Ser473, pAKT^Thr308, p-AKT substrates) in MCF7AC1 cells; experiment: Immunoblot of AKT signaling and PARP cleavage, MCF7AC1; assay type: cell-based, human; conditions: for Effect on insulin-stimulated AKT^Ser473 and AKT^Thr308 phosphorylations: 100 nM insulin 1 h, 0.1 µM
Experimental: The ENDX hydrochloride utilized in this study was synthesized in collaboration between Mayo Clinic and National Institute of Health (NIH). Estrogen deprived MCF7AC1 were treated with vehicle control or ENDX (National Cancer Institute) for 24 h. […] For the insulin (Sigma-Aldrich, #I0516) experiments, MCF7AC1 and T47D cells were maintained in serum-free medium for 24 h prior to pretreatment with vehicle control or drugs for 2 h followed by treatment with 100 nM insulin for 1 h.
(§4) Protein lysates were prepared using the RIPA lysis buffer system (ChemCruz #sc-24948) and quantified using the DC^TM Protein Assay reagents (Bio-Rad #5000112). Equal amounts of protein lysates were separated on 10% Criterion gels (Bio-Rad #3450112), transferred to PVDF membranes (Bio-Rad #1620177), blocked in TBST-5% milk and probed with primary antibodies listed in Supplementary Table 5, at the indicated dilutions. Membranes were incubated with HRP-conjugated anti-rabbit (CST #7074) or anti-mouse (CST #7076) secondary antibodies and visualized using chemiluminescent West Pico (Thermo Scientific #34580) or West Femto (Thermo Scientific #34096) reagents and a Li-Cor Odyssey® XF imager. Protein lysates from the MCF7AC1 xenograft model were obtained from a previous study. Quantitation of the protein bands signal intensity was performed using the NIH ImageJ image analysis software (https://imagej.nih.gov/ij///index.html). For the quantitation of the phospho protein levels, we first normalized total protein levels to β-actin loading control and used these values to normalize the phospho protein levels and compared change in protein expression levels relative to vehicle control normalized to 1.0. For the quantitation of total protein levels, we normalized the total protein levels to β-actin and compared change in expression levels relative to vehicle control normalized to 1.0. All blots were processed in parallel and derived from the same experiments. Unprocessed immunoblot images are provided in Supplementary Figs. 9–13.

T47D-LTED cells [5] = experiment: IncuCyte Annexin V apoptosis assay, T47D-LTED; assay type: cell-based, human; conditions: CSS medium; 1 and 5 µM, but not 0.1 µM
Experimental: as §2
(§5) Supplementary Figure 6. […] Cell viability is assessed by the crystal violet assay. b, MCF7AC1 cells were co-treated with vehicle control or 0.01, 0.1 and 5 µM MK-2206 and IncuCyte Annexin V green and NucLight rapid red reagents in CSS medi um for 48 hours. […]
Cells were plated at a density of 2000 cells per well. c, MCF7AC1 cells were treated with vehicle control or 0.01, 0.1 and 5 µM MK-2206 in CSS medium for 24 hours. […] Cell viability is assessed by the crystal violet assay. f, Parental T47D and T47D-LTED cells were processed for protein lysates. […] Percentage of cells undergoing apoptosis was calculated as mentioned in b. i, T47D-LTED cells were treated with vehicle control or 0.01, 0.1 and 5 µM MK -2206 in CSS medium for 24 hours . […]

T47D-LTED cells [6] = experiment: Crystal violet cell viability assay, T47D-LTED; assay type: cell-based, human; conditions: CSS medium, six days
Experimental: as §1, §5
Cells were plated at a density of 2000 cells per well. c, MCF7AC1 cells were treated with vehicle control or 0.01, 0.1 and 5 µM MK-2206 in CSS medium for 24 hours. […] Cell viability is assessed by the crystal violet assay. f, Parental T47D and T47D-LTED cells were processed for protein lysates. […] Cell viability is assessed by the crystal violet assay. h, T47D-LTED cells were co-treated with vehicle control or 0.01, 0.1 and 5 µM MK -2206 and IncuCyte Annexin V green and NucLight rapid red reagents in CSS medium for 48 hours. […] Cell viability is assessed by the crystal violet assay. […]

PKCβ1 in MCF7AC1 cells [7] = experiment: Immunoblot of PKCβ1 and pPKCβ1^Ser661, MCF7AC1; assay type: cell-based, human; conditions: serum starved; for Effect on PKCβ1 total protein in insulin treated cells: 100 nM insulin 1 h, ENDX 0.01, 0.1, 5 µM, TAM 0.1 µM, ICI 0.1 µM
Experimental: (§6) The ENDX hydrochloride utilized in this study was synthesized in collaboration between Mayo Clinic and National Institute of Health (NIH). Estrogen deprived MCF7AC1 were treated with vehicle control or ENDX (National Cancer Institute) for 24 h. For the phorbol 12-myristate 13-acetate (PMA) (LC Laboratories, #P-1680) experiments, MCF7AC1 cells were maintained in serum-free medium for 24 h prior to pretreatment with vehicle or ENDX for 2 h followed by treatment with 20 or 200 nM PMA for 20 min. For the insulin (Sigma-Aldrich, #I0516) experiments, MCF7AC1 and T47D cells were maintained in serum-free medium for 24 h prior to pretreatment with vehicle control or drugs for 2 h followed by treatment with 100 nM insulin for 1 h.
as §4

[8] = tested on: ERα+/HER2- metastatic breast cancer; conditions: cited from earlier work
[9] = tested on: AKT phosphorylation in T47D cells; experiment: Immunoblot of AKT phosphorylation, serum starved T47D; assay type: cell-based, human; conditions: 0.1 µM
Experimental: as §6
as §3, with “Protein lysates from the MCF7AC1 xenograft model were obtained from a previous study.” left out

PKCβ1 in MCF7AC1 cells [10] = experiment: Immunoblot of PKCβ1 and pPKCβ1^Ser661, MCF7AC1; assay type: cell-based, human; conditions: serum starved, 1 µM ENZA 2 h, 200 nM PMA 30 min
[11] = ERα+ breast cancer patients receiving 20 mg/day TAM monotherapy; cited from earlier work

Molecule: NC1(c2ccc(-c3nc4ccn5c(=O)[nH]nc5c4cc3-c3ccccc3)cc2)CCC1 [MK-2206, reference compound]
- Concentrations at which growth was inhibited (MCF7AC1 cells [1]): ≥ 0.1 µM
- Concentration at which apoptosis (annexin V binding and PARP1 cleavage) was induced (MCF7AC1 cells [2]; estrogen deprived (CSS)): 5 µM
- Concentrations reducing AKT^Ser473 phosphorylation [3]: ≥ 1 µM
- Concentrations at which AKT^Ser473 phosphorylation was reduced ([4]; estrogen deprived (CSS), 24 h): ≥ 1 µM
- Concentrations increasing apoptosis (annexin V staining, PARP cleavage) (T47D-LTED cells [5]): ≥ 1 µM
- Concentration from which growth was significantly inhibited (T47D-LTED cells [6]): ≥ 0.1 µM

Molecule: Insulin: known activator of AKT^Ser473 phosphorylation (Sigma-Aldrich)
- Effect on AKT^Ser473 phosphorylation ([4]; serum starved, 100 nM, 1 h): robustly stimulated AKT^Ser473 phosphorylation

Molecule: CCCCCCCCCCCCCC(=O)O[C@@H]1[C@@H](C)[C@@]2(O)[C@@H](C=C(CO)C[C@]3(O)C(=O)C(C)=C[C@@H]23)[C@@H]2C(C)(C)[C@]12OC(C)=O [PMA, phorbol 12-myristate 13-acetate, reference compound]
- Effect of PKC agonist on PKCβ1^Ser661 and AKT^Ser473 phosphorylation (PKCβ1 in MCF7AC1 cells [7]; 20 and 200 nM, 20 min): stimulated PKCβ1^Ser661 auto-phosphorylation and AKT^Ser473 phosphorylation

Molecule: CC/C(=C(\c1ccccc1)c1ccc(OCCN(C)C)cc1)c1ccccc1 [TAM, tamoxifen, reference compound]
- Effect on apoptosis (MCF7AC1 cells [2]): failed to induce apoptosis
- PFS in CDK4/6 inhibitor naïve patients ([8]; CDK4/6i naïve): 2.4 m
- Progression free survival (PFS) overall ([8]; women with ERα+/HER2- metastatic breast cancer progressed on endocrine therapy): 1.8 m
- Effect on insulin-stimulated AKT^Ser473 phosphorylation [9]: failing to block insulin-stimulated AKT^Ser473 phosphorylation
- Effect on insulin-stimulated AKT^Ser473 and AKT^Thr308 phosphorylations ([4]; serum starved): failed to inhibit insulin-stimulated AKT^Ser473 and AKT^Thr308 phosphorylations
- Effect on PKCβ1 total protein in insulin treated cells (PKCβ1 in MCF7AC1 cells [7]): failed to diminish PKCβ1 total protein expression

Molecule: Cn1cc(C2=C(c3cn(C4CCN(Cc5ccccn5)CC4)c4ccccc34)C(=O)NC2=O)c2ccccc21 [enzastaurin]
- Effect on PKCβ1 expression (PKCβ1 in MCF7AC1 cells [10]): neither impacted the expression of PKCβ1
- Effect on PMA-stimulated PKCβ1^Ser661 phosphorylation (PKCβ1 in MCF7AC1 cells [10]): reduced PKCβ1^Ser661 phosphorylation

Molecule: CC/C(=C(\c1ccc(O)cc1)c1ccc(OCCN(C)C)cc1)c1ccccc1 [4-HT]
- Clinically attainable serum concentration [11]: < 5 nM

Molecule: C[C@]12CC[C@@H]3c4ccc(O)cc4C[C@@H](CCCCCCCCC[S+]([O-])CCCC(F)(F)C(F)(F)F)[C@H]3[C@@H]1CC[C@@H]2O (stereo partly drawn) [ICI, ICI-182780, reference compound]
- Effect on apoptosis (MCF7AC1 cells [2]): failed to induce apoptosis
- Effect on insulin-stimulated AKT^Ser473 phosphorylation [9]: failing to block insulin-stimulated AKT^Ser473 phosphorylation
- Effect on insulin-stimulated AKT^Ser473 and AKT^Thr308 phosphorylations ([4]; serum starved): failed to inhibit insulin-stimulated AKT^Ser473 and AKT^Thr308 phosphorylations
- Effect on PKCβ1 total protein in insulin treated cells (PKCβ1 in MCF7AC1 cells [7]): failed to diminish PKCβ1 total protein expression
